Results on seven compounds are retold here after US10240216B2 (priority 2013, dated 2019).

Series [1] deals with a number of bacteria and fungi. The settings on record: concentration of 1 mg/ml; cited from earlier work.
The test system of the next series is Magnaporthe oryzae. The format is cell-based. The note with it: at 25 μg/mL.
Another series has as its system a number of bacteria. The note with it: concentration of 64 µg/mL; cited from earlier work.
For a further series, the system named is Bacillus brevis. The format is cell-based.
For another series, the system named is Mucor miehei. The format is cell-based.
In another series the test system is Paealomyces variotii. The format is cell-based.
A further series relates to human neutrophils. The settings on record: cited from earlier work.
The next series concerns HeLaS3 cells. The note with it: 50 μg/mL, 72 h.

For `Cc1ccc2c(c1/C=C/C=C/C(=O)O)C(C)CC(C)C2O` (stereo not shown) [arohynapene A], in series [1], the “antimicrobial activity in vitro against a number of bacteria and fungi” value (shortened to “antimicrobial activity in vitro”) was “no antimicrobial activity”. Besides, in the series on Magnaporthe oryzae, the “inhibition of the spore germination of Magnaporthe oryzae” value was determined as 100%.

For the compound hynapenes A, B and C [hynapene A], the “antimicrobial activity in vitro” value in series [1] is listed as “show antimicrobial activity”.

As for `C[C@@H]1C[C@@](C)(O)Cc2ccc(CO)c(/C=C/C=C/C(=O)O)c21` [tanzawaic acid G, Tanzawaic acids G and H], the “activity against a number of bacteria” value with a number of bacteria is recorded as “neither tanzawaic acids G nor H were found to be active”.

Regarding `Cc1ccc2c(c1/C=C/C=C/C(=O)O)[C@H](C)C[C@H](C)C2` [tanzawaic acid A], in the series on Bacillus brevis, the “activity in agar diffusion assay against Bacillus brevis” value is “slight activity”. Also, the “activity in agar diffusion assay against Mucor miehei” value in the series on Mucor miehei was “slight activity”. The “activity in agar diffusion assay against Paealomyces variotii” value in the series on Paealomyces variotii is “slight activity”. The “inhibition of superoxide anion production in human neutrophils” value with human neutrophils is reported as “inhibit superoxide anion production”. Also, in the series on HeLaS3 cells, the “cytotoxic effects against HeLaS3 cells” value is on record as “cytotoxic effects”.

As to `CC1Cc2ccc(CO)c(/C=C/C=C/C(=O)O)c2C(C)C1` (stereo not shown) [arohynapene B], the “antimicrobial activity in vitro” value in series [1] is given as “no antimicrobial activity”. In addition, the “inhibition of the spore germination of Magnaporthe oryzae” value with Magnaporthe oryzae is given as 100%.

In the case of arohynapene D, the “antimicrobial activity in vitro” value in series [1] is “no antimicrobial activity”.

Regarding “Tanzawaic acids A, B, C and D [tanzawaic acid B]”, in the series on human neutrophils, the “inhibition of superoxide anion production in human neutrophils” value is reported as “inhibit superoxide anion production”.
